The values below come from patent US20070286867A1, “Combination Therapy” (Fusion Antibodies Limited, priority 2003, published 2007).

For series [1], the system named is MCF-7 cells. Kind of series: MTT cell viability assay in MCF-7 cells. It is filed as cell-based. For orientation: Formazan colour is commonly taken as a measure of viable cells.
Experimental: (§4) Cell Viability Assays. Cell viability was assessed by MTT (3-(4,5-dimethylthiazol-2-yl)-2,5-diphenyltetrazolium bromide, Sigma) assay (12). […] MTT (0.5 mg/ml) was then added to each well and the cells incubated at 37° C. for a further 3 hours. The culture medium was removed and formazan crystals reabsorbed in 200 μL DMSO. Cell viability was determined by reading the absorbance of each well at 570 nm using a 96-well microplate reader (Molecular Devices, Wokingham, England). […] Twenty microlitres (20 μL) MTT (5 mg/ml) was then added to each well and the cells incubated at 37° C. for a further 3 hours. The culture medium was removed and formazan crystals reabsorbed in 200 μL DMSO. Cell viability was determined by reading the absorbance of each well at 570 nm using an ELISA plate reader (Molecular Devices).
(§5) Statistical Analyses. The nature of the interaction between the chemotherapeutic drugs and CH-11 was determined by calculating the R index (RI), which was initially described by Kern and later modified by Romaneli (13, 14). […] Synergism is then defined as an RI of greater than unity. […] To further assess the statistical significance of the interactions, the inventors designed a univariate ANOVA analysis using the SPSS software package. This was an additive model based on the null hypothesis that there was no interaction between the drugs.
Another series has as its system HCT116p53^+/+ cells. In words: MTT cell viability assay in HCT116 p53 wild-type cells. Format: cell-based, human. Conditions: for interaction with CH-11 in MTT assay: range of drug concentrations 24 hours, then CH-11 200 ng/ml for 48 hours.
Series [2] concerns MCF-7 cells. Kind of series: Flow cytometry of propidium iodide stained cells, sub-G1/G0 apoptotic fraction, MCF-7. It is filed as cell-based. Conditions: 25 nM RTX 72 hours, 250 ng/ml CH-11 24 hours; untreated control ~11%. On the procedure:
(§1) Where flow cytometric analysis was employed in Examples 1 to 5, the following protocol was used. Cells were seeded at 1×10^5 per well of a 6-well tissue culture plate. […] DNA content of harvested cells was evaluated after propidium iodide staining of cells using the EPICS XL Flow Cytometer (Coulter, Miami, Fla.). Where flow cytometric analysis was employed in Examples 6 to 12, the following protocol was used. Cells were seeded at 1×10^5 per well of a 6-well tissue culture plate. […] DNA content of harvested cells was evaluated after propidium iodide staining of cells using the EPICS XL Flow Cytometer (Coulter). A FITC-conjugated monoclonal anti-human Fas antibody (DAKO) was used to determine cell surface expression of the receptor. Cells were collected and washed twice in PBS before incubating in the antibody (1/20 dilution) at 4° C. for 30 mins. A non-reactive FITC-conjugated mouse IgG1 antibody was used as a negative control for each sample. Following incubation the cells were washed twice with PBS containing 2% bovine serum albumin and fixed in 0.3 mL 4% paraformaldehyde. Samples were then analysed on the EPICS XL Flow Cytometer (Coulter).

A further series deals with M7TS90-E6 cells. Kind of series: Flow cytometry sub-G1/G0 apoptotic fraction, M7TS90-E6. It is filed as cell-based. The conditions noted are these: 96 hours after drug treatment; RTX 100 nM, MTA 1 μM, 5-FU 10 μM. On the procedure: as §1
On the technique in general: In flow cytometry, cells or beads pass a laser one at a time.

The next series relates to HCT116 p53 null cells. In words: Propidium iodide flow cytometry, HCT116 p53 null. It is filed as cell-based, human. The conditions noted are these: drug 24 hours followed by CH-11 50 ng/ml 24 hours. Here is the method: as §1, with “Cells” for “Where flow cytometric analysis was employed in Examples 1 to 5, the following protocol was used. Cells”, “Where flow cytometric analysis was employed in Examples 6 to 12, the following protocol was used.” left out

The test system of series [3] is Fas. Kind of series: Western blot of Fas expression in MCF-7 cells. Format: cell-based. On the procedure:
(§2) Western Blotting. Western blots were performed as previously described (6). The Fas/CD95, Bc1-2 and BID (Santa Cruz Biotechnology, Santa Cruz, Calif.), caspase 8 (Oncogene Research Products, Darmstadt, Germany), p53 (Santa Cruz Biotechnology), and PARP (Pharmingen, BD Biosciences, Oxford, England) mouse monoclonal antibodies were used in conjunction with a horseradish peroxidase (HRP)-conjugated sheep anti-mouse secondary antibody (Amersham, Little Chalfont, Buckinghamshire, England). FasL rabbit polyclonal antibody (Santa Cruz Biotechnology) was used in conjunction with an HRP-conjugated donkey anti-rabbit secondary antibody (Amersham). TS sheep monoclonal primary antibody (Rockland, Gilbertsville, Pa.) was used in conjunction with an HRP-conjugated donkey anti-sheep secondary antibody (Serotech, Oxford, England). Equal loading was assessed using a β-tubulin mouse monoclonal primary antibody (Sigma).
(In general: Immunoblotting shows a protein as a band on a membrane.)

The test system of series [4] is Fas. In words: Western blot of Fas expression in HCT116 p53 wild-type cells. Format: cell-based, human. Conditions: for Fas expression: RTX after 72 hours, MTA data not shown. Here is the method:
as §2

The subject of series [5] is Fas. In words: Western blot of Fas expression in RKO cells. It is filed as cell-based. Conditions: 48 hours post-treatment; MTA data not shown. Here is the method: as §2
Series [6] relates to Fas. In words: Western blot of Fas expression in M7TS90 cells. It is filed as cell-based. Conditions: 10 μM 5-FU, 100 nM RTX or 1 μM MTA for 72 hours. Here is the method: as §2
The test system of series [7] is Fas. In words: Western blot of Fas expression in M7TS90-E6 cells. Format: cell-based. The conditions noted are these: 10 μM 5-FU, 100 nM RTX or 1 μM MTA. On the procedure:
as §2

Series [8] relates to Fas. Kind of series: Western blot of Fas expression in H630 cells. It is filed as cell-based. The conditions noted are these: range of concentrations, 48 hours. Here is the method:
as §2

The next series has as its system FasL. In words: Western blot of FasL expression in MCF-7 cells. It is filed as cell-based. The conditions noted are these: IC60 doses, 72 hours. On the procedure:
as §2

The next series relates to procaspase 8, BID, PARP. In words: Western blot of procaspase 8, BID and PARP in MCF-7 cells. Format: cell-based. Conditions: 5 μM 5-FU or 25 nM RTX 72 hours; CH-11 250 ng/ml 24 hours. Here is the method: as §2
Series [9] relates to procaspase 8, PARP. In words: Western blot of procaspase 8 and PARP in M7TS90-E6 cells. It is filed as cell-based. Conditions: p53 null; 5-FU 10 μM, RTX 100 nM, MTA 1 μM, CH-11 250 ng/ml; drugs alone data not shown. Here is the method: as §2
Series [10] deals with Fas/CD95 mRNA. Kind of series: Real-time PCR of Fas/CD95 mRNA in HCT116 p53 wild-type cells. The conditions noted are these: IC60 72hrs doses. Format: cell-based, human. On the procedure:
(§3) Real-time PCR was performed using a DNA Engine Opticon 2 (MJ Research Incorporated). TheDyNAmo SYBR Green qPCR kit (Finnzymes) was used as the fluoresent dye specific for double-stranded DNA. PCR conditions consisted of an initial denaturation step of 95° C. for 10 minutes, followed by 39 cycles of 94° C. for 10 secs, 55° C. for 20 secs and 72° C. for 20 secs, with a final extension of 72° C. for 10 minutes. A melting curve was included at the end of each run to check the specificity of the amplified product. Experiments were performed in triplicate to ensure reproducibility of the technique. On completion of the run the PCR products were run put on a 2% ethidium bromide agarose gel to confirm that their size matched that of the expected amplicon. Primer sequences were as follows: Fas (Forward) […], Fas (Reverse) […], 18S (Forward) […], 18S (Reverse) […].

The next series has as its system Fas/CD95 receptor. In words: Flow cytometry of Fas/CD95 cell surface expression, HCT116 p53 null. It is filed as cell-based, human. The conditions noted are these: 24 hours. Here is the method:
as §1, with “Cells” for “Where flow cytometric analysis was employed in Examples 1 to 5, the following protocol was used. Cells”, “Where flow cytometric analysis was employed in Examples 6 to 12, the following protocol was used.” left out

Another series deals with RKO cells. In words: MTT cell viability assay in RKO cells. It is filed as cell-based. The conditions noted are these: data not shown.
Another series relates to H630 cells. Kind of series: MTT cell viability assay in p53 mutant H630 cells. It is filed as cell-based. Conditions: drug 24 hours, then CH-11 for 48 hours (Example 11).
The subject of series [11] is Fas. In words: Western blot of Fas expression in HCT116 p53 null cells. Format: cell-based, human. Conditions: CPT-11 5 μM, 48 hours. Here is the method: as §2
Series [12] concerns procaspase 8, PARP. In words: Western blot of procaspase 8 and PARP in HCT116 p53 null cells. It is filed as cell-based, human. Conditions: IC60 dose 24 hours followed by CH-11 200 ng/ml 24 hours. On the procedure: as §2
Series [13] concerns Fas/CD95 mRNA. In words: Real-time PCR of Fas/CD95 mRNA in HCT116 p53 null cells. It is filed as cell-based, human. The conditions noted are these: IC60 72hrs doses, 24 and 48 hours. On the procedure: as §3
For a further series, the system named is Fas receptor. Kind of series: Fas/CD95 cell surface expression in p53 mutant H630 cell line (Example 11). The conditions noted are these: 48 hours; 5-FU 5 μM, CPT-11 5 μM, Oxaliplatin 1 μM. Format: cell-based. Here is the method: as §1

Experimental for HCT116p53^+/+ cells: as §4, §5

Compound `Cc1nc2ccc(CN(C)c3ccc(C(=O)N[C@@H](CCC(=O)O)C(=O)O)s3)cc2c(=O)[nH]1` [RTX, ralitrexed] displayed an IC60 dose in the series on MCF-7 cells [1] (MCF-7) of 25 nM. In the series with HCT116p53^+/+ cells, the “interaction with CH-11 in MTT assay” value is recorded as “significant synergy”. Also, the “cells in the sub-G1/G0 apoptotic phase” value in the series with MCF-7 cells [2] is on record as about 16%. Further, the “induction of apoptosis by drug alone” value with M7TS90-E6 cells is about 8 fold. For the same compound, in the series with HCT116 p53 null cells, the “interaction with CH-11 by propidium iodide staining” value is “to a lesser extent”. In the series with Fas [3] (72 hours, IC60 dose (5 μM 5-FU, 25 nM RTX)), this compound had a Fas protein up-regulation of about 7 fold. Further, the “Fas expression” value with Fas [4] is “dramatically increased”; with Fas [5] it was “dramatic Fas up-regulation”; in the series with Fas [8] it was “not significantly altered”. Further, the “effect of TS induction on drug-mediated up-regulation of Fas” value in the series on Fas [6] was “abrogated”. In the series on Fas [7], the “Fas up-regulation” value is listed as “did not result in Fas up-regulation”. In the series on FasL, the “FasL expression” value is recorded as “unaffected”. The “activation of caspase 8 and BID (processing of procaspase 8 and full-length BID), words” value with procaspase 8, BID, PARP was “neither caspase 8, nor its substrate BID were activated”. The “PARP cleavage / processing” value in the series with procaspase 8, PARP [9] is listed as “processed”. In addition, the “induction of Fas mRNA expression” value in the series on Fas/CD95 mRNA [10] (24 and 48 hours) is on record as “significant induction”. The “induction of Fas/CD95 receptor cell surface expression” value in the series on Fas/CD95 receptor was “induction of the Fas/CD95 receptor”.
Consider `Nc1nc2[nH]cc(CCc3ccc(C(=O)N[C@@H](CCC(=O)O)C(=O)O)cc3)c2c(=O)[nH]1` [MTA, pemetrexed], for which the “interaction with CH-11 to decrease cell viability” value in the series with MCF-7 cells [1] (data not shown), with HCT116p53^+/+ cells (data not shown) and in the series with RKO cells was “synergistically interacted” throughout. Moreover, in the series with M7TS90-E6 cells, the “induction of apoptosis by drug alone” value is given as about 6 fold. For the same compound, the “Fas expression” value with Fas [3] (MTA data not shown, CH-11 alone 250 ng/ml, 5-FU alone 5 μM) was “up-regulated”; in the series with Fas [4], “up-regulated”; with Fas [5], “up-regulated”. The “effect of TS induction on drug-mediated up-regulation of Fas” value in the series on Fas [6] is “abrogated”. Besides, the “Fas up-regulation” value with Fas [7] is “did not result in Fas up-regulation”. Moreover, the “PARP cleavage / processing” value with procaspase 8, PARP [9] is listed as “processed”.
On to `CCc1c2c(nc3ccc(OC(=O)N4CCC(N5CCCCC5)CC4)cc13)-c1cc3c(c(=O)n1C2)COC(=O)[C@]3(O)CC` [CPT-11, Irinotecan], for which the “interaction with CH-11 in MTT assay” value in the series on HCT116p53^+/+ cells and with H630 cells was “significant synergy” in each case. In addition, in the series on HCT116 p53 null cells, the “interaction with CH-11 by propidium iodide staining” value is listed as “significant synergy”. For the same compound, the “induction of Fas/CD95 protein” value in the series on Fas [4] (5-FU 5 μM, CPT-11 5 μM, Oxaliplatin 1 μM for 48 hours) is reported as “significant induction”; in the series with Fas [11] it was “induction of Fas/CD95 protein”. In the series on procaspase 8, PARP [12], the “PARP cleavage and procaspase 8 activation following the addition of CH-11” value is “PARP cleavage and procaspase 8 activation”. Further, the “fold induction of Fas mRNA” value with Fas/CD95 mRNA [10] (24 hours) amounted to 7.0 fold; in the series on Fas/CD95 mRNA [10] (48 hours), 2.5 fold. Also, the “maximum induction of Fas mRNA” value in the series on Fas/CD95 mRNA [13] is listed as 1.9 fold. Further, in the series with Fas/CD95 receptor, the “induction of Fas/CD95 receptor cell surface expression” value was “induction of the Fas/CD95 receptor”. Besides, in the series with Fas receptor, the “induction of the Fas receptor” value is “Induction of the Fas receptor”.
